{"source": "patent US20240230656A1", "about": "“Predicting Prognosis and Treatment Response of Breast Cancer Patients Using Expression and Cellular Localization of N-Myristoyltransferase” (Oncodrex Inc., priority 2021, published 2024)", "key": {"NMT1": {"system": "NMT1", "test": "MCF7 gene expression of NMT following insulin stimulation or rapamycin treatment (NMT1)", "format": "cell-based", "settings": "MCF7 cells", "from_the_text": "(§1) Example 9—MCF7 Gene Expression of NMT and WT1 Regulated Genes Following Insulin Stimulation\n(§2) NMT1 was also shown to bind to regions of DNA containing BASP1 regulated growth genes. […] This supports our prediction that phosphorylation is the leading PI3K/AKT/mTOR mediated regulatory mechanism responsible for NMT1 modulation."}, "NMT2": {"system": "NMT2", "test": "MCF7 gene expression of NMT following insulin stimulation or rapamycin treatment (NMT2)", "format": "cell-based", "settings": "MCF7 cells", "from_the_text": "as §1, §2"}}, "data": [{"substance": "insulin", "values": [{"measurement": "NMT1 expression following treatment", "setting": "NMT1", "value": "little change"}, {"measurement": "NMT2 expression following treatment", "setting": "NMT2", "value": "little change"}]}]}
